Columns and labels:
[1] = tested on: T1, proteasome of PC-3 tumor xenografts; assay: Proteasome activities of tumor xenografts; type: in vivo, nude mice
T1 construct: from tissue; host or cells: PC-3 tumour xenografts from Balb/c-nu-nu mice, homogenate supernatant
Procedure: Cells were treated with either solvent control (0.1% DMSO), fangchinoline at different concentrations, or 1 μM carfilzomib (positive control) for 24 h at 37 °C. The enzymatic activities of cellular proteasome in cell lysate were measured as reported in our previous paper. Briefly, cells were harvested, washed with PBS and then lysed in proteasome activity assay buffer for 30 min at 4°C. The homogenate was then centrifuged at 12000 × g for 30 min at 4°C. The supernatant was collected as whole cell extract and the protein content in the supernatant was measured with the Bradford reagent. Catalytic activities of cellular proteasome were assayed by adding whole cell extract (containing 30 μg protein) to 100 μL of proteasome activity assay buffer containing 50 μM fluorogenic peptide substrates such as Z-LLE-AMC for detecting C-L activity, Z-ARR-AMC for detecting T-L activity or Suc-LLVY-AMC for detecting CT-L activity, respectively. The release of fluorogenic AMC from the peptide substrates was then measured as described above.
Male nude immunodeficient mice Balb/c-nu-nu, aged 4 weeks, were purchased from Shanghai Experimental Animal Center. […] Tumor sizes were measured every 4 days using calipers and their volumes were calculated using a standard formula: width^2×length/2. […] Body weight was measured daily. […]

[2] = tested on: PSMB6 knockdown PC-3 cells; assay: MTT assay in PC-3 cells with knockdown of proteasome β1 subunit (PSMB6 siRNA); type: cell-based, human; settings: 72 h treatment, vs negative control cells
Procedure: The inhibitive effects of fangchinoline on proliferation of PC-3 cells or LnCap cells was observed by checking cell viability of cells using MTT assay as described before. Briefly, cells were seeded in 96-well plates at a density of 5×10^4 cells/mL for PC-3 cell and 4×10^4 cells/mL for LnCap cells. After overnight culture, the media were changed into fresh media containing various concentrations of fangchinoline or 0.1% DMSO (solvent control) for 24, 48 h or 72 h. Cell viability was evaluated by measuring the mitochondrial-dependent conversion of the yellow tetrazolium salt MTT to purple formazan crystals by metabolic active cells. The optical density (proportional to the number of live cells) was assessed with a Microplate Reader Bio-Rad 550 at 570 nm. IC50 value (half-maximal inhibitory concentration) was calculated by the Logit method.
Validated siRNAs for PSMB6 (Sigma-Aldrich) were transfected into PC-3 cells by using Lipofectamine RNAiMAX (Invitrogen) according to the manufacturer’s protocol. Scrambled negative control siRNAs (Sigma-Aldrich) were used as negative control. Expression levels of PSMB6 (proteasome β1 subunit) in wide type cells, PSMB6 knockdown cells (cells treated with siRNAs for PSMB6), negative control cells (cells transfected with scrambled negative control siRNAs) were checked using Western blotting assay. […]

`COc1ccc2cc1Oc1ccc(cc1)C[C@H]1c3cc(c(OC)cc3CCN1C)Oc1c(O)c(OC)cc3c1[C@H](C2)N(C)CC3` [fangchinoline] was tested. Which “Significance of decrease in proteasome activity of tumor xenografts” value ([1]; 50 mg/kg group) did it give?
The value was “significant”.

What about the “Proteasome activities of tumor xenografts compared with vehicle control” value ([1]; fangchinoline-treated groups (25 and 50 mg/kg)) of the same compound?
The value was “decreased”.

And the “Effect of knockdown of proteasome β1 subunit on proliferation inhibition” value [2]?
The value was “ameliorated proliferation-inhibiting effects”.

Reference: PMC4626104, “Inhibition on Proteasome β1 Subunit Might Contribute to the Anti-Cancer Effects of Fangchinoline in Human Prostate Cancer Cells” (PLoS ONE, 2015)
